We go through 10 molecules from ChEMBL document CHEMBL3046320, “Synthesis and evaluation of antioxidant activity of 2-styrylchromones” (Med Chem Res, 2013).

The experiment has as its system Radical scavenging activity. Kind of experiment: Antioxidant activity assessed as DPPH radical scavenging activity by DPPH method. The format is functional. Also on record: concentration or dose not given beside the values. On the technique in general: DPPH is a stable violet radical that fades when it is reduced.

Consider `COc1ccc(/C=C/c2cc(=O)c3c(O)cccc3o2)cc1`, for which the Activity was found to be 71.1%.

As to `O=c1cc(/C=C/c2ccccc2)oc2cc(I)c(Cl)cc12`, the Activity is 67.2%. For `COc1ccc(/C=C/c2cc(=O)c3ccc(I)cc3o2)cc1` the value was 66.8%; for `C/C(=C\c1cc(=O)c2ccc(I)cc2o1)c1ccccc1`, 69.6%; for `C/C(=C\c1cc(=O)c2cc(Cl)c(I)cc2o1)c1ccccc1`, 71.4%.

For the molecule `O=c1cc(/C=C/c2ccccc2)oc2cc(I)ccc12`, the Activity worked out at 65%. Take `COc1ccc(/C=C/c2cc(=O)c3cc(Br)ccc3o2)cc1`: the Activity is 60.9%. As for `O=c1cc(/C=C/c2ccccc2)oc2ccccc12`, the Activity is 64.4%. In the case of `C/C(=C\c1cc(=O)c2ccccc2o1)c1ccccc1` it was 65.8%; in that of `COc1ccc(/C=C/c2cc(=O)c3cc(Cl)c(I)cc3o2)cc1`, 69.1%.
